Source: patent US11951169B2, “Pharmaceutical preparation with curcuminoids nanoparticles and a method for producing the same” (AASTAR PTE LTD, priority 2019, dated 2024)

Assay: Dissolution test (USP apparatus Type II paddles) of capsules containing the gel liquid, HPLC analysis
Format: physicochemical
Settings: capsule
Method: An Agilent 1260 Infinity HPLC system consists of a G1330B thermostat, a G1329B auto-injector, a G13150 diode array detector, a G1322A degasser and a high-pressure binary pump. Signal/Noise ratio of the chromatogram generated from this HPLC was used for qualitative and quantitative analyses in this study. The column used was an Angilent Poroshell 120 EC-C18 ([…], 2.7 am). The HPLC was run for 10 minutes at a column temperature of 35° C. under a flow rate of 0.3 ml/min with injection volume being 5 μl. The detection spectrum was set at 426 nm using an elusion medium comprising acetonitrile and 0.1% of aqueous formic acid in a volume ratio of 1:2.
2.0 g of NaCl and 7 ml of HCl were dissolved in 1 L of ultrapure water. The pH was adjusted to 1.2, by using 2M NaOH. 13.121 g of Na2HPO4 were dissolved in 1 L of ultrapure water. The pH was adjusted to 6.8.
A Vankel Varain VK 70000 Dissolution System consisting of VK7000 dissolution system, VK 750D heating circulator, system monitor, 6 Vankel vessels and apparatus Type II paddles, was used in the preparation of a dissolution sample from capsules containing the gel liquid.
The dissolution test was performed in compliance with United States Pharmacopoeia using apparatus Type II paddles. […] 6 capsules were added into 6 vessels respectively. […] 2 μl of the filtrate was injected into the HPLC system for analysis.
Further, 250 ml of pH 6.8 solution was added to the same vessel at 45 minutes and the pH was adjusted to 6.8 using 2M NaOH within 5 minutes. 1-2 ml of the dissolution sample was then collected after 60 minutes, 75 minutes and 120 minutes followed by filtering through a 0.45 μm membrane immediately. 2 μl of the filtrate was injected into the HPLC system for analysis.

Weight dissolved (pH 1.2, 15 min) [µg]	Weight dissolved (pH 1.2, 30 min) [µg]	Weight dissolved (pH 6.8, 45 min) [µg]	Weight dissolved (pH 6.8, 60 min) [µg]	Weight dissolved (pH 6.8, 75 min) [µg]	Weight dissolved (pH 6.8, 120 min) [µg]	Weight dissolved (pH 1.2, 10 min) [µg]	Structure (SMILES)
195 ± 22	831 ± 87	745 ± 48	747 ± 45	739 ± 68	763 ± 69	–	COc1cc(/C=C/C(=O)CC(=O)/C=C/c2ccc(O)cc2)ccc1O [DMC, demthoxycurcumin]
4250 ± 686	18908 ± 1819	24155 ± 1397	23746 ± 1347	23497 ± 1859	23937 ± 1826	590 ± 78	COc1cc(/C=C/C(=O)CC(=O)/C=C/c2ccc(O)c(OC)c2)ccc1O [Curcumin, curcumin]
